# ChEMBL document CHEMBL4665855, “Discovery of DS34942424: An orally potent analgesic without mu opioid receptor agonist activity” (Bioorg Med Chem, 2020)
# Molecular target: T1, Mu-type opioid receptor (Homo sapiens, UniProt P35372)
# Experiment: Displacement of [3H]diprenorphine from human MOR incubated for 1 hr
# Conditions: not given
# T1 sequence (P35372 whole entry): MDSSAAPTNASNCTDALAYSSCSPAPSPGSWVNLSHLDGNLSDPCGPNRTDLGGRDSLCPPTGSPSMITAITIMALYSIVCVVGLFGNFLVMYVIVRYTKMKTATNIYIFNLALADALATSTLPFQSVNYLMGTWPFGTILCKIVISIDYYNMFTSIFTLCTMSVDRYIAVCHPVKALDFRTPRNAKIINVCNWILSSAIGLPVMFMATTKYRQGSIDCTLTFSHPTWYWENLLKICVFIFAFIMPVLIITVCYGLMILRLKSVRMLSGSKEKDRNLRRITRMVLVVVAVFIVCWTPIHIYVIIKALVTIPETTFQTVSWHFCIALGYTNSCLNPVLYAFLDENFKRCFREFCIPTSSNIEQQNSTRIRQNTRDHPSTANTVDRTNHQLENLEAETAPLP
row,Compound,EC50 [µM]
1,CN1C(=O)c2ccc(F)cc2CN2C[C@@H]1C1(CC1)C2,> 100

# Test system: not listed separately
# Experiment: 1-Octanol-PBS buffer distribution coefficient, log D of compound at pH 7.4
# Type: physicochemical
# Conditions: not given
row,Compound,logD
1,CN1C(=O)c2ccccc2CN2C[C@@H]1C1(CC1)C2,0.5
2,CN1C(=O)c2ccccc2CN2CC[C@H]1C2,0.3
3,CN1C(=O)c2cc(F)ccc2CN2C[C@@H]1C1(CC1)C2,0.9
4,CN1C(=O)c2c(F)cccc2CN2C[C@@H]1C1(CC1)C2,1
5,CN1C(=O)c2ccc(F)cc2CN2C[C@@H]1C1(CC1)C2,0.9
6,O=C1c2ccccc2CN2CCCN1CC2,0.6
7,CN1C(=O)c2cccc(F)c2CN2C[C@@H]1C1(CC1)C2,0.9
8,CCN1C(=O)c2ccccc2CN2CC[C@H]1C2,0.4
9,CC1c2ccccc2C(=O)N(C)[C@H]2CCN1C2 (some centres undefined),0.3
10,CN1C(=O)c2ccccc2CN2CCC[C@H]1C2,0.3

# Test system: Mus musculus
# Experiment: Antinociceptive activity in ddY mouse model assessed as inhibition of acetic acid-induced writhes at 30 mg/kg, po pretreated for 30 mins followed by acetic acid challenge and measured for 25 mins post acetic acid challenge
# Type: functional
# Conditions: 55 min
row,Compound,inhibition in vivo at 30 mg/kg [%]
1,CN1C(=O)c2ccccc2CN2C[C@@H]1C1(CC1)C2,84
2,CN1C(=O)c2ccccc2CN2CC[C@H]1C2,97
3,O=C1c2ccccc2CN2CCCN1CC2,24
4,CCN1C(=O)c2ccccc2CN2CC[C@H]1C2,45
5,CC1c2ccccc2C(=O)N(C)[C@H]2CCN1C2 (some centres undefined),31
6,CN1C(=O)c2ccccc2CN2CCC[C@H]1C2,77

# Test system: not listed separately
# Experiment: Cmax in ddY mouse at 10 mg/kg, po by LC-MS/MS method
# Type: ADME, organism-based
# Set-up: route oral, dose 10 mg/kg
# Conditions: in vivo
row,Compound,Cmax [nM]
1,CN1C(=O)c2ccccc2CN2C[C@@H]1C1(CC1)C2,5240
2,CN1C(=O)c2ccccc2CN2CC[C@H]1C2,3740
3,CN1C(=O)c2ccc(F)cc2CN2C[C@@H]1C1(CC1)C2,1470
4,CN1C(=O)c2ccccc2CN2CCC[C@H]1C2,1970

# Test system: not listed separately
# Experiment: Protective index, ratio of ID50 for locomotory activity to ED50 for antinociceptive activity in orally dosed ddY mouse
# Type: toxicity, organism-based
# Conditions: in vivo, po
row,Compound,selectivity ratio
1,CC12CCN(CC1)Cc1c([nH]c3ccccc13)C2=O,2.1
2,C/C=C1/CN2CC[C@H]1C(=O)c1[nH]c3ccccc3c1C2,2.2
3,CN1C(=O)c2[nH]c3ccccc3c2CN2CC[C@H]1C2,2.1
4,CN1C(=O)c2ccccc2CN2CC[C@H]1C2,> 3.4
5,CN1C(=O)c2ccc(F)cc2CN2C[C@@H]1C1(CC1)C2,10.3

# Test system: not listed separately
# Experiment: AUC in ddY mouse at 10 mg/kg, po by LC-MS/MS method
# Type: ADME, organism-based
# Set-up: dose 10 mg/kg
# Conditions: in vivo
row,Compound,AUC [µM·h]
1,CN1C(=O)c2ccccc2CN2C[C@@H]1C1(CC1)C2,5.24
2,CN1C(=O)c2ccccc2CN2CC[C@H]1C2,7.79
3,CN1C(=O)c2ccc(F)cc2CN2C[C@@H]1C1(CC1)C2,1.74
4,CN1C(=O)c2ccccc2CN2CCC[C@H]1C2,1.97

# Test system: Mus musculus
# Experiment: Antinociceptive activity in orally dosed ddY mouse model assessed as inhibition of acetic acid-induced writhes pretreated for 30 mins followed by acetic acid challenge and measured for 25 mins post acetic acid challenge
# Type: functional
# Conditions: po, 55 min
row,Compound,ED50 [mg/kg]
1,CC12CCN(CC1)Cc1c([nH]c3ccccc13)C2=O,7.8
2,C/C=C1/CN2CC[C@H]1C(=O)c1[nH]c3ccccc3c1C2,32
3,CN1C(=O)c2[nH]c3ccccc3c2CN2CC[C@H]1C2,8.7
4,CN1C(=O)c2ccccc2CN2C[C@@H]1C1(CC1)C2,15
5,CN1C(=O)c2ccccc2CN2CC[C@H]1C2,25
6,CN1C(=O)c2cc(F)ccc2CN2C[C@@H]1C1(CC1)C2,36
7,CN1C(=O)c2c(F)cccc2CN2C[C@@H]1C1(CC1)C2,35
8,CN1C(=O)c2ccc(F)cc2CN2C[C@@H]1C1(CC1)C2,6.4
9,CN1C(=O)c2cccc(F)c2CN2C[C@@H]1C1(CC1)C2,14
10,CN1C(=O)c2ccccc2CN2CCC[C@H]1C2,23

# Test system: not listed separately
# Experiment: Half life in ddY mouse at 10 mg/kg, po by LC-MS/MS method
# Type: ADME, organism-based
# Conditions: in vivo
row,Compound,half-life [h]
1,CN1C(=O)c2ccc(F)cc2CN2C[C@@H]1C1(CC1)C2,1.9

# Test system: not listed separately
# Experiment: Metabolic stability in CD1 mouse liver microsomes assessed as compound remaining measured after 0.5 hrs by LC/MS-MS analysis
# Type: ADME, Microsome
# Conditions: read-out: Stabilty
row,Compound,remaining at 0.5 h [%]
1,CN1C(=O)c2ccccc2CN2C[C@@H]1C1(CC1)C2,81
2,CN1C(=O)c2ccccc2CN2CC[C@H]1C2,82
3,CN1C(=O)c2cc(F)ccc2CN2C[C@@H]1C1(CC1)C2,81
4,CN1C(=O)c2c(F)cccc2CN2C[C@@H]1C1(CC1)C2,79
5,CN1C(=O)c2ccc(F)cc2CN2C[C@@H]1C1(CC1)C2,83
6,O=C1c2ccccc2CN2CCCN1CC2,78
7,CN1C(=O)c2cccc(F)c2CN2C[C@@H]1C1(CC1)C2,79
8,CCN1C(=O)c2ccccc2CN2CC[C@H]1C2,80
9,CC1c2ccccc2C(=O)N(C)[C@H]2CCN1C2 (some centres undefined),81
10,CN1C(=O)c2ccccc2CN2CCC[C@H]1C2,62

# Test system: not listed separately
# Experiment: Effect on spontaneous locomotory activity in orally dosed ddY mouse measured for 1 hr
# Type: ADME, organism-based
# Conditions: in vivo, po
row,Compound,ID50 [mg/kg]
1,CC12CCN(CC1)Cc1c([nH]c3ccccc13)C2=O,16
2,C/C=C1/CN2CC[C@H]1C(=O)c1[nH]c3ccccc3c1C2,69
3,CN1C(=O)c2[nH]c3ccccc3c2CN2CC[C@H]1C2,19
4,CN1C(=O)c2ccccc2CN2CC[C@H]1C2,> 85
5,CN1C(=O)c2ccc(F)cc2CN2C[C@@H]1C1(CC1)C2,66

# Molecular target: T2, hERG (KCNH2) (Homo sapiens, UniProt Q12809)
# T2 sequence (Q12809 whole entry): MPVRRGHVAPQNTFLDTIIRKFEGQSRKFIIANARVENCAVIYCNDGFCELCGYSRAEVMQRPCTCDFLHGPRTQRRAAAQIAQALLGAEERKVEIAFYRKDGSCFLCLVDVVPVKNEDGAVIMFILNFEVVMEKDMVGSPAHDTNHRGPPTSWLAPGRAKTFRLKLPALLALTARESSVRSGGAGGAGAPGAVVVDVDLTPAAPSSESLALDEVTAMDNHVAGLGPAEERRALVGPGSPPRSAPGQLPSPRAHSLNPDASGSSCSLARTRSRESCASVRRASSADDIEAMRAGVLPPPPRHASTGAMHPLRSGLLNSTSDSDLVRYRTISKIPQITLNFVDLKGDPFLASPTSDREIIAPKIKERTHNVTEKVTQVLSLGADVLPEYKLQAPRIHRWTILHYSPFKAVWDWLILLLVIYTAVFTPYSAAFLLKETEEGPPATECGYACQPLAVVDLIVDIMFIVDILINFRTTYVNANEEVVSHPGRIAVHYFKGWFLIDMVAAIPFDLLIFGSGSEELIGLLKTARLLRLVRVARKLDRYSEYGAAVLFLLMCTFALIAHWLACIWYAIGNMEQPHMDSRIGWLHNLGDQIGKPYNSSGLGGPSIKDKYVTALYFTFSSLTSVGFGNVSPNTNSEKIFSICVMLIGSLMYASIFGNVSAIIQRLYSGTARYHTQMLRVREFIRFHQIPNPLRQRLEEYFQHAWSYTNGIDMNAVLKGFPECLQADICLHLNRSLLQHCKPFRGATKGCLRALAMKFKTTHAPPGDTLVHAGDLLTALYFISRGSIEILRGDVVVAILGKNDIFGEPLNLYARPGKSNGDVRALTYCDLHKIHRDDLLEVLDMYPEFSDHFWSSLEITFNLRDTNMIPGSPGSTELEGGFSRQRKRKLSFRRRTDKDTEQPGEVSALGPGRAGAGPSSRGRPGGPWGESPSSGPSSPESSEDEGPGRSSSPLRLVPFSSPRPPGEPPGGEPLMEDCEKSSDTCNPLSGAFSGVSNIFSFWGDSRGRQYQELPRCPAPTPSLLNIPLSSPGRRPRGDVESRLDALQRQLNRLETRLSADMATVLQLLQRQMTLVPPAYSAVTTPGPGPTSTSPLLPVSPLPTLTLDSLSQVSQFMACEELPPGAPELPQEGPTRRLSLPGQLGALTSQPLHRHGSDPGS
# Experiment: Inhibition of human ERG expressed in HEK293 cells at 30 uM at - 80 mV holding potential by whole cell patch clamp assay relative to control
# Type: cell-based
# Conditions: HEK293 cells expressing human ERG
row,Compound,inhibition at 30 µM [%]
1,CN1C(=O)c2ccccc2CN2C[C@@H]1C1(CC1)C2,15
2,CN1C(=O)c2cc(F)ccc2CN2C[C@@H]1C1(CC1)C2,14
3,CN1C(=O)c2c(F)cccc2CN2C[C@@H]1C1(CC1)C2,0
4,CN1C(=O)c2ccc(F)cc2CN2C[C@@H]1C1(CC1)C2,2
5,CN1C(=O)c2cccc(F)c2CN2C[C@@H]1C1(CC1)C2,0

# Test system: Mus musculus
# Experiment: Analgesic activity in formalin-induced orally dosed ddY mouse model of hyperalgesia assessed as time spent in paw licking during acute phase pretreated for 30 mins followed by formalin challenge and measured for 10 mins
# Type: functional
# Conditions: po, 0.5 h
row,Compound,ED50 [mg/kg]
1,CN1C(=O)c2ccc(F)cc2CN2C[C@@H]1C1(CC1)C2,16

# Molecular target: T2, hERG (KCNH2)
# Experiment: Inhibition of human ERG expressed in HEK293 cells at 10 uM at - 80 mV holding potential by whole cell patch clamp assay relative to control
# Type: cell-based
# Conditions: HEK293 cells expressing human ERG
row,Compound,inhibition at 10 µM [%]
1,CN1C(=O)c2ccccc2CN2C[C@@H]1C1(CC1)C2,14
2,CN1C(=O)c2ccccc2CN2CC[C@H]1C2,5
3,O=C1c2ccccc2CN2CCCN1CC2,-1
4,CCN1C(=O)c2ccccc2CN2CC[C@H]1C2,6
5,CC1c2ccccc2C(=O)N(C)[C@H]2CCN1C2 (some centres undefined),6
6,CN1C(=O)c2ccccc2CN2CCC[C@H]1C2,5

# Molecular target: T1, Mu-type opioid receptor
# Experiment: Agonist activity at human MOR expressed in CHOK1 cells assessed as inhibition of forskolin-stimulated cAMP accumulation by FRET assay relative to DAMGO
# Type: cell-based
# Conditions: CHO-K1, human
row,Compound,Emax [%]
1,CN1C(=O)c2ccc(F)cc2CN2C[C@@H]1C1(CC1)C2,18
